According to patent publication US8952024B2, “Herbicidal pyrimidone derivatives” (E I du Pont de Nemours and Company, priority 2009, dated 2015):

How the values were obtained:
Test in all cases: Test B pre-/postemergence plant response
Format in all cases: in vivo
[1] = test system: Italian ryegrass (Lolium multiflorum)
Procedure, shortened: (§1)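 Each species received compound formulated in non-phytotoxic solvent with surfactant, either at planting into a loam and sand blend or as a foliar spray once plants reached 2 to 18 cm in peat-based medium. Plants stayed in the greenhouse 13 to 15 days before visual evaluation against controls, scored 0 (no effect) to 100 (complete control).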

[2] = test system: large crabgrass (Digitaria sanguinalis)
Procedure, shortened: as §1

[3] = test system: goosegrass (Eleusine indica)
Procedure, shortened: as §1

[4] = test system: lambsquarters (Chenopodium album)
Procedure, shortened: as §1

[5] = test system: galium (catchweed bedstraw, Galium aparine); settings: Preemergence
Procedure, shortened: as §1

[6] = test system: pigweed (Amaranthus retroflexus)
Procedure, shortened: as §1

[7] = test system: Surinam grass (Brachiaria decumbens)
Procedure, shortened: as §1

[8] = test system: nightshade (eastern black nightshade, Solanum ptycanthum); settings: Preemergence
Procedure, shortened: as §1

[9] = test system: sunflower (common oilseed sunflower, Helianthus annuus); settings: Preemergence
Procedure, shortened: as §1

[10] = test system: woolly cupgrass (Eriochloa villosa)
Procedure, shortened: as §1

corn (Zea mays) = test system: corn (Zea mays)
Procedure, shortened: as §1

[11] = 31 g ai/ha, postemergence, scale 0 to 100, 0 is no effect, 100 is complete control
[12] = 62 g ai/ha, postemergence, 0 is no effect, 100 is complete control, 13 to 15 days
[13] = Postemergence, 125 g ai/ha, visual rating after 13 to 15 days, scale 0 (no effect) to 100 (complete control)
[14] = Postemergence, 250 g ai/ha, scale 0 to 100 (0 no effect, 100 complete control)
[15] = Preemergence, 31 g ai/ha, scale 0 to 100 (0 no effect, 100 complete control)
[16] = Preemergence, 62 g ai/ha, scale 0 to 100, 0 no effect, 100 complete control
[17] = Preemergence, 125 g ai/ha, scale 0 to 100, 0 no effect, 100 complete control
[18] = 250 g ai/ha, Preemergence, 0 to 100 scale
[19] = 31 g ai/ha, scale 0 to 100 (0 no effect, 100 complete control)
[20] = 62 g ai/ha, scale 0 to 100, 0 no effect, 100 complete control
[21] = 125 g ai/ha, scale 0 to 100, 0 no effect, 100 complete control

## CC(C)Cc1ncc(C(=O)C2=C(O)CCCC2=O)c(=O)n1-c1ccccc1 [Compound 68]
[1]; [11]
  Plant response rating, Ryegrass, Italian: 5
[1]; [12]
  Ryegrass, Italian plant response rating (0 to 100 scale): 5
[1]; [13]
  Plant response rating, Ryegrass, Italian: 15
[1]; [14]
  Plant response rating, Ryegrass, Italian: 50
[1]; [15]
  Plant response rating, Ryegrass, Italian: 0
[1]; [16]
  Plant response rating, Ryegrass, Italian: 0
[1]; [17]
  Plant response rating, Ryegrass, Italian: 0
[2]; [11]
  Plant response rating, Crabgrass, Large: 75
[2]; [12]
  Crabgrass, Large plant response rating (0 to 100 scale): 90
[2]; [18]
  Plant response rating, Crabgrass, Large: 100
[2]; [13]
  Plant response rating, Crabgrass, Large: 90
[2]; [14]
  Plant response rating, Crabgrass, Large: 98
[2]; [15]
  Plant response rating, Crabgrass, Large: 65
[2]; [16]
  Plant response rating, Crabgrass, Large: 95
[2]; [17]
  Plant response rating, Crabgrass, Large: 98
[3]; [11]
  Plant response rating, Goosegrass: 65
[3]; [12]
  Goosegrass plant response rating (0 to 100 scale): 70
[3]; [18]
  Plant response rating, Goosegrass: 98
[3]; [13]
  Plant response rating, Goosegrass: 85
[3]; [14]
  Plant response rating, Goosegrass: 95
[3]; [15]
  Plant response rating, Goosegrass: 80
[3]; [16]
  Plant response rating, Goosegrass: 95
[3]; [17]
  Plant response rating, Goosegrass: 98
[4]; [11]
  Plant response rating, Lambsquarters: 95
[4]; [12]
  Lambsquarters plant response rating (0 to 100 scale): 98
[4]; [18]
  Plant response rating, Lambsquarters: 100
[4]; [13]
  Plant response rating, Lambsquarters: 100
[4]; [14]
  Plant response rating, Lambsquarters: 100
[4]; [15]
  Plant response rating, Lambsquarters: 98
[4]; [16]
  Plant response rating, Lambsquarters: 98
[4]; [17]
  Plant response rating, Lambsquarters: 98
[5]; 250 g ai/ha, 0 to 100 scale
  Plant response rating, Galium: 85
[5]; [19]
  Plant response rating, Galium: 0
[5]; [20]
  Plant response rating, Galium: 70
[5]; [21]
  Plant response rating, Galium: 70
[6]; [11]
  Plant response rating, Pigweed: 85
[6]; [12]
  Pigweed plant response rating (0 to 100 scale): 95
[6]; [13]
  Plant response rating, Pigweed: 100
[6]; [14]
  Plant response rating, Pigweed: 100
[6]; [15]
  Plant response rating, Pigweed: 95
[6]; [16]
  Plant response rating, Pigweed: 98
[6]; [17]
  Plant response rating, Pigweed: 100
[7]; [11]
  Plant response rating, Surinam Grass: 25
[7]; [12]
  Surinam Grass plant response rating (0 to 100 scale): 55
[7]; [13]
  Plant response rating, Surinam Grass: 70
[7]; [14]
  Plant response rating, Surinam Grass: 90
[7]; [15]
  Plant response rating, Surinam Grass: 45
[7]; [16]
  Plant response rating, Surinam Grass: 50
[7]; [17]
  Plant response rating, Surinam Grass: 55
[8]; [19]
  Plant response rating, Nightshade: 98
[8]; [20]
  Plant response rating, Nightshade: 98
[8]; [21]
  Plant response rating, Nightshade: 100
[9]; [19]
  Plant response rating, Sunflower: 0
[9]; [20]
  Plant response rating, Sunflower: 60
[9]; [21]
  Plant response rating, Sunflower: 75
[10]; [11]
  Plant response rating, Cupgrass, Woolly: 10
[10]; [12]
  Cupgrass, Woolly plant response rating (0 to 100 scale): 10
[10]; [18]
  Plant response rating, Cupgrass, Woolly: 85
[10]; [13]
  Plant response rating, Cupgrass, Woolly: 55
[10]; [14]
  Plant response rating, Cupgrass, Woolly: 75
[10]; [15]
  Plant response rating, Cupgrass, Woolly: 5
[10]; [16]
  Plant response rating, Cupgrass, Woolly: 20
[10]; [17]
  Plant response rating, Cupgrass, Woolly: 55
Corn (Zea mays); [11]
  Plant response rating, Corn: 0
Corn (Zea mays); [12]
  Corn plant response rating (0 to 100 scale): 15
Corn (Zea mays); [18]
  Plant response rating, Corn: 0
Corn (Zea mays); [13]
  Plant response rating, Corn: 80
Corn (Zea mays); [14]
  Plant response rating, Corn: 80
Corn (Zea mays); [15]
  Plant response rating, Corn: 0
Corn (Zea mays); [16]
  Plant response rating, Corn: 0
Corn (Zea mays); [17]
  Plant response rating, Corn: 0
